Experimental data taken from patent US20030180248A1, “Cosmetic composition containing the extract of mountain ginseng adventitious roots” (priority 2001, published 2003).

Test system: transformed mouse fibroblast L929 cells
Assay: Cytotoxicity, Neutral Red uptake
Assay type: cell-based
Details: 48 hours
Text: Extracts from tissue-cultured mountain ginseng adventitious roots, prepared in Examples 1 to 3, were examined for cytotoxicity, in comparison with a red ginseng extract and arbutin, which are conventionally used as skin-whitening materials.
After being recovered by trypsinization, the transformed mouse fibroblast L929 cells were suspended in DMEM supplemented with 2% BCS (bovine calf serum), and the suspension was aliquoted at a concentration of 2,500-3,000 cells/well into each well of 96 well tissue culture plates, followed by incubation at 37° C. for 48 hours in a 5% CO2 atmosphere. After substitution of the medium with a fresh, serum-free one, the cells were treated with the test materials shown in Table 2, below, and cultured for 48 hours. To each well, Neutral Red (50 μg/ml) was added, and reacted with cells for 3 hours. After completion of the accumulation of Neutral Red in live cells, the dye was fixed with the use of 1.0% formalin/1.0% CaCl2. Neutral Red was extracted from cells using 1.0% acetic acid/50% ethanol solution. The extracted Neutral Red was analyzed by ELISA to measure the cytotoxicity of the test materials according to concentrations.

OC[C@H]1O[C@@H](Oc2ccc(O)cc2)[C@H](O)[C@@H](O)[C@@H]1O [Arbutin]
NR50 (Neutral Red): 0.29 w/w %
Cytotoxicity (Neutral Red reading) (concentration 0.001 w/w %): 98
Cytotoxicity (Neutral Red reading) (concentration 0.01 w/w %): 82
Cytotoxicity (Neutral Red reading) (concentration 0.1 w/w %): 63
Cytotoxicity (Neutral Red reading) (concentration 1 w/w %): 2
